Reference: paper PMC11134387, “Cancer-Stem-Cell Phenotype-Guided Discovery of a Microbiota-Inspired Synthetic Compound Targeting NPM1 for Leukemia” (JACS Au, 2024)
Entries after “also recorded” stand apart in the source; their conditions may differ.

Tests used:
[1] = tested on: human renal proximal tubule epithelial cells (hRPT Epi Cells); assay: Dose-response viability in renal proximal tubule epithelial cells; format: cell-based; details: dose-response viability assay; listed as UCM-13369
Source text: Scale bar: 100 μm. (E ) Dose-response curve of UCM-13369 in human renal proximal

NPM1 [2] = assay: Western blot of NPM1 in MOLM13 cells; format: cell-based; details: MOLM13, 10 µM
Method: (§1) We next studied the impact of UCM-13369 in the genes and/or expression levels of NPM1 and NPM1 C+ pathway components (Figure 4A), including the positive regulation of c-Myc[34] and the negative regulation of FBXW7 and the pro-apoptotic CASP8.[35] […] The inhibition of NPM1 was also observed in MOLM13 cells expressing WT NPM1 (Figure S1B).
1. Figures S1 -S4and T ab les S1 , S2
Figure S1. (A) Dose-response curve of UCM-13369 in MCF-7, HCT-116 and IMR90 […]
(10 µM) in MOLM13 cells at 24 and 48 h. Densitometry values: reduction of 5% and […]
between NSG mice injected with OCI-AML3 cells, with and without UCM-13369 treatment (50 mg/kg). (D) IHC analysis of a poptotic cells in a representative kidney sample from OC I-AML 3 xenograft mice treat ed with DMSO (vehicle, top) vs . UCM-13369 treated mice (50 mg/kg, bottom) mice: H&E ( left) and cleav ed caspase- 3 (right). […]
Proteomic analysis. A supplementary table (Excel file) includes all the data of the proteomic analysis, showing all the proteins identified, not only those ablated in the treated population, but also those found with different expression levels in both populations under study, and even those that were not detected in the control population but were detected in the treated population. Follows the image of a Venn diagram showing the number of proteins detected in each of the pop ulations and the proteins that converg e […]

NPM1 [3] = assay: qPCR of NPM1 expression in OCI-AML3 cells; format: cell-based; details: OCI-AML3, 10 μM
Source text: as §1, with “S1B). […]” for “S1B).”
quantitative real-time PCR (qPCR), or were sorted using a FACS BD INFL UX cell sorter (BD Biosciences, Franklin Lakes, NJ, USA). All cells were maintained at 37 °C in a humidified incubator in an atmosphere of 5% CO2, and passaged every 2–3 days.
Additionally, they were cultured using RPMI media (Gibco/Life Technologies; Grand Island, NY, USA) supplemented with 10% fetal bovine serum (FBS) (Hyclone) and […]
Primary cells. […] After 72 h in maintenance cells were ready to start the assays. […]
Colonospheres, mamospheres and colony formation unit assays. […] After 10 days (mamospheres and colonospheres) and 14 days (CFU-E) we quantified t he number of colonies/spheres and number of cell s (CFU-E) by […]
RNA and DNA extraction and quantitative PCR (qPCR). […] Gene expression was studied from the extracted RNA, processed into cDNA to quantify the expression of NPM1 and c-MYC. […]
The relative amount of targets was determined by the comparative Ct method.
Western blot. […] Lysates wer e cl ear ed by centrifugation (14,000g, 4 °C, 30 min), protein concentration determined by Bradford

HCT-116 = assay: Cytotoxic effect in colon tumor cell line (MTT); details: Homo sapiens, HCT-116, read-out: Viability (%) HCT-116, @5 µM (footnote d)
Method: The cytotoxic effect was determined in breast (MCF-7) and colon (HCT-116) tumor cell lines using MTT assays.
Cells were seeded at 3 × 10^4 cells/mL in 96-well plates. The test compound was diluted in PBS. […] Viability was evaluated by MTT or WST-1 and dose/response curves were performed.

COc1ccc(C2Cc3[nH]c4ccccc4c3C(CCNCC3CC3)C2N)cc1 (centres unmarked) [4b, 4-{2-[(Cyclopropylmethyl)amino]ethyl}-2-(4-methoxyphenyl)-2,3,4,9-tetrahydro-1H-carbazol-3-amine]
Toxicity in hRPT Epi Cells (in words) [1]: showed toxicity in kidney cells; also recorded: revealed toxicity
Densitometry values (NPM1): reduction (NPM1 [2]; 24 h): 5%
Densitometry values (NPM1): reduction (NPM1 [2]; 48 h): 44%
NPM1 expression, dot plot (in words) (NPM1 [3]): decreased NPM1 expression
viability at 5 µM (HCT-116): 70%
